Patent US4315939A, “Piperidine derivatives of 4,5-dialkyl-3-hydroxy-pyrrole-2-carboxylic acid esters, pharmaceutical formulations containing these compounds and use in treating cardiac arrhythmias” (priority 1979, dated 1982)
Structures can show the parent of a compound that is named as a salt.

Assays:
Type in all cases: in vivo, rats (Sprague Dawley)
[1] = test system: aconitine-induced arrhythmia of rats; assay: Anti-arrhythmic effect on aconitine-induced arrhythmia in rats, oral administration; details: for ED50 / Emax: Rattus norvegicus, po; for ED50: read-out: ED 50% (dose which lengthens the duration of aconitine infusion by 50%); for Emax: read-out: R.M.E. = relative maximum effect; for Maximum effect: lengthening of the duration of aconitine infusion, Δ%: at the maximum tolerated dose, oral, rats; for R.A. = relative activity: relative to Prajmalium = 1.00, from ED 50%; for anti-arrhythmic activity compared with Prajmalium: in words, aconitine-induced arrhythmia of rats
Procedure: (§1) To determine the anti-arrhythmic activity, the substances are administered orally to rats (Sprague Dawley, weight 200-250 g), 45 minutes before narcosis.
(§2) The animals are narcotized with sodium thiobutabarbital (100 mg/kg administered intraperitoneally). The arrhythmogenic substance used is aconitine, which is infused intravenously, at a rate of 0.005 mg/kg×min 60 minutes after the administration of the anti-arrhythmicagent. In untreated animals (N=52), arrhythmias manifest themselves in the electrocardiogram (ECG) after 2.74±0.07 min, and the occurrence of these can be delayed by the anti-arrhythmic agents, the delay being dependent on the dose.
The dose which lengthens the duration of infusion up to the occurrence of arrhythmias by 50%, namely the ED 50%, is determined from the linear relationships between log dose (mg/kg) of the test substance and the relative increase in the duration of aconitine infusion (Δ%).
(§3) For further characterization of the substances, the anti-arrhythmic effect of the maximum tolerated dose is determined from the decimal-geometric dose progression (factor 3.cuberoot.10) employed in the experiments. Furthermore, the dose at which toxic symptoms (changes in the initial ECG, cyanosis and cramps) occur is determined.
^(1) Dose which lengthens the duration of aconitine infusion by 50%
^(2) R.A. = relative activity. Prajmalium = 1.00
(§4) ^(3) Effect of the maximum tolerated dose
^(4) Lengthening of the duration of aconitin infusion, Δ %
^(5) R.M.E. = relative maximum effect, Prajmalium = 1.00

[2] = Toxicity / toleration in rats (changes in the initial ECG, cyanosis and cramps), oral administration; set-up: Toxicity: Dose whose administration produces the first toxic symptoms: unit: mg/kg; details: rat, in vivo; oral, rats; mg/kg printed only over the effective dose columns and in b40 (log dose); read-out: Maximum effect: Dose (maximum tolerated dose)
Procedure: as §1, §2, §3, §4
(§5) ^(6) Dose whose administration produces the first toxic symptoms

rats = assay: as above; set-up: Toxicity: Dose whose administration produces the first toxic symptoms: unit: mg/kg; details: for Toxicity: Dose whose administration produces the first toxic symptoms / Q (therapeutic range, quotient of the toxic dose and the ED 50%): oral, rats; for Toxicity: Dose whose administration produces the first toxic symptoms: mg/kg printed only over the effective dose columns and in b40 (log dose); for Q (therapeutic range, quotient of the toxic dose and the ED 50%): toxic dose / ED 50%
Procedure: as §1, §2, §3, §4, §5

CCOC(=O)c1[nH]c(C)c(C)c1OCC(O)CN1CCC(O)(c2ccccn2)CC1 (stereo not drawn) [Example 1, 3-[2-hydroxy-3-(4-α-pyridyl-4-hydroxy-piperidino)-propoxy]-4,5-dimethyl-pyrrole-2-carboxylic acid ethyl ester dihydrochloride]
ED50 [1]: 7.8 mg/kg
Emax [1]: 186%
Maximum effect: lengthening of the duration of aconitine infusion, Δ% [1]: 324%
R.A. = relative activity [1]: 0.64
MTD [2]: 46.4 mg/kg
Toxicity: Dose whose administration produces the first toxic symptoms (rats): 100
Q (therapeutic range, quotient of the toxic dose and the ED 50%) (rats): 13

CCOC(=O)c1[nH]c(C)c(C)c1OCC(O)CN1CCC(O)(c2ccccc2)CC1 (centres unmarked) [Example 2, 3-[2-hydroxy-3-(4-phenyl-4-hydroxy-piperidino)-propoxy]-4,5-dimethyl-pyrrole-2-carboxylic acid ethyl ester hydrochloride]
ED50 [1]: 6.23 mg/kg
Emax [1]: 98%
Maximum effect: lengthening of the duration of aconitine infusion, Δ% [1]: 170%
anti-arrhythmic activity compared with Prajmalium [1]: as active as Prajmalium
R.A. = relative activity [1]: 0.80
MTD [2]: 21.5 mg/kg
Toxicity: Dose whose administration produces the first toxic symptoms (rats): 46.4
Q (therapeutic range, quotient of the toxic dose and the ED 50%) (rats): 7.5

COC(=O)c1[nH]c(C)c(C)c1OCCCN1CCC(O)(c2ccccc2)CC1 [Example 6, 3-[3-(4-phenyl-4-hydroxy-piperidino)-propoxy]-4,5-dimethylpyrrole-2-carboxylic acid methyl ester]
ED50 [1]: 3.68 mg/kg
Emax [1]: 87%
Maximum effect: lengthening of the duration of aconitine infusion, Δ% [1]: 152%
anti-arrhythmic activity compared with Prajmalium [1]: surpass the latter
R.A. = relative activity [1]: 1.36
MTD [2]: 10 mg/kg
toxic dose compared with Prajmalium (rats; in words): of equal toxicity to Prajmalium
Toxicity: Dose whose administration produces the first toxic symptoms (rats): 21.5
Q (therapeutic range, quotient of the toxic dose and the ED 50%) (rats): 5.8

COC(=O)c1[nH]c(C)c(C)c1OCC(O)CN1CCC(O)(c2ccccn2)CC1 (stereo not drawn) [Example 7, 3-[2-hydroxy-3-(4-α-pyridyl-4-hydroxy-piperidino)-propoxy]-4,5-dimethylpyrrole-2-carboxylic acid methyl ester]
ED50 [1]: 13.5 mg/kg
Emax [1]: 176%
Maximum effect: lengthening of the duration of aconitine infusion, Δ% [1]: 307%
R.A. = relative activity [1]: 0.37
MTD [2]: 46.4 mg/kg
Toxicity: Dose whose administration produces the first toxic symptoms (rats): 100
Q (therapeutic range, quotient of the toxic dose and the ED 50%) (rats): 7.4

CCOC(=O)c1[nH]c(C)c(C)c1OCCN1CCC(O)(c2ccccc2)CC1 [Example 10, 3-[2-(4-phenyl-4-hydroxy-piperidino)-ethoxy]-4,5-dimethylpyrrole-2-carboxylic acid ethyl ester]
ED50 [1]: 2.99 mg/kg
Emax [1]: 199%
Maximum effect: lengthening of the duration of aconitine infusion, Δ% [1]: 347%
anti-arrhythmic activity compared with Prajmalium [1]: surpass the latter
R.A. = relative activity [1]: 1.67
MTD [2]: 21.5 mg/kg
Toxicity: Dose whose administration produces the first toxic symptoms (rats): 46.4
Q (therapeutic range, quotient of the toxic dose and the ED 50%) (rats): 16

COC(=O)c1[nH]c(C)c(C)c1OCCCCN1CCC(O)(c2ccccc2)CC1 [Example 11, 3-[4-(4-phenyl-4-hydroxy-piperidino)-butoxy]-4,5-dimethylpyrrole-2-carboxylic acid methyl ester]
ED50 [1]: 5.54 mg/kg
Emax [1]: 177%
Maximum effect: lengthening of the duration of aconitine infusion, Δ% [1]: 308%
anti-arrhythmic activity compared with Prajmalium [1]: as active as Prajmalium
R.A. = relative activity [1]: 0.90
MTD [2]: 21.5 mg/kg
Toxicity: Dose whose administration produces the first toxic symptoms (rats): 46.4
Q (therapeutic range, quotient of the toxic dose and the ED 50%) (rats): 8.4

CCOC(=O)c1[nH]c(C)c(C)c1OCC(O)CN1CCC(O)(c2ccc(F)cc2)CC1 (centres unmarked) [Example 13, 3-[2-hydroxy-3-(4-(p-fluorophenyl)-4-hydroxy-piperidino)-propoxy]-4,5-dimethylpyrrole-2-carboxylic acid ethyl ester]
ED50 [1]: 5.93 mg/kg
Emax [1]: 86%
Maximum effect: lengthening of the duration of aconitine infusion, Δ% [1]: 149%
anti-arrhythmic activity compared with Prajmalium [1]: as active as Prajmalium
R.A. = relative activity [1]: 0.84
MTD [2]: 21.5 mg/kg
Toxicity: Dose whose administration produces the first toxic symptoms (rats): 46.4
Q (therapeutic range, quotient of the toxic dose and the ED 50%) (rats): 7.8

COC(=O)c1[nH]c(C)c(C)c1OCC(O)CN1CCC(O)(c2ccccc2)CC1 (centres unmarked) [Example 19, 3-[2-hydroxy-3-(4-phenyl-4-hydroxy-piperidino)-propoxy]-4,5-dimethyl-pyrrole-2-carboxylic acid methyl ester]
ED50 [1]: 3.38 mg/kg
Emax [1]: 174%
Maximum effect: lengthening of the duration of aconitine infusion, Δ% [1]: 302%
anti-arrhythmic activity compared with Prajmalium [1]: surpass the latter
R.A. = relative activity [1]: 1.48
MTD [2]: 21.5 mg/kg
Toxicity: Dose whose administration produces the first toxic symptoms (rats): 46.4
Q (therapeutic range, quotient of the toxic dose and the ED 50%) (rats): 14

CCCCc1c(C)[nH]c(C(=O)OCC)c1OCC(O)CN1CCC(O)(c2ccccc2)CC1 (centres unmarked) [Example 21, 3-[2-hydroxy-3-(4-phenyl-4-hydroxy-piperidino)-propoxy]-4-n-butyl-5-methyl-pyrrole-2-carboxylic acid ethyl ester]
ED50 [1]: 9.85 mg/kg
Emax [1]: 99%
Maximum effect: lengthening of the duration of aconitine infusion, Δ% [1]: 173%
R.A. = relative activity [1]: 0.51
MTD [2]: 46.4 mg/kg
Toxicity: Dose whose administration produces the first toxic symptoms (rats): 100
Q (therapeutic range, quotient of the toxic dose and the ED 50%) (rats): 10

CCC[N+]12C(O)C(CC)C3CC1C1N(C)c4ccccc4C14CC2C3C4O (centres unmarked) [Prajmalium, N-propylajmalin, reference compound]
ED50 [1]: 4.99 mg/kg
Emax [1]: 100%
Maximum effect: lengthening of the duration of aconitine infusion, Δ% [1]: 174%
R.A. = relative activity [1]: 1.00
MTD [2]: 10 mg/kg
Toxicity: Dose whose administration produces the first toxic symptoms (rats): 21.5
Q (therapeutic range, quotient of the toxic dose and the ED 50%) (rats): 4.3
